Test results published in PubChem BioAssay (NCI).
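Assay format: 96-well plates, 48-hour exposure. Here, GI50 denotes the concentration required for 50% inhibition of growth. TGI denotes the concentration required for complete inhibition of growth.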

Tests used:
Experiment in all cases: NCI anticancer screen, dose series, 48 h
[1] = tested on: T-47D breast
[2] = tested on: NCI-H23 lung
[3] = tested on: CCRF-CEM leukemia
[4] = tested on: UACC-62 melanoma
[5] = tested on: HCT-15 colon
[6] = tested on: SF-268 CNS
[7] = tested on: K-562 leukemia
[8] = tested on: HOP-62 NSCLC
[9] = tested on: SK-OV-3 ovarian
[10] = tested on: HOP-92 NSCLC
[11] = tested on: OVCAR-5 ovarian
[12] = tested on: HCC-2998 colon
[13] = tested on: SK-MEL-5 melanoma
[14] = tested on: OVCAR-4 ovarian
[15] = tested on: M14 melanoma
[16] = tested on: HCT-116 colon
[17] = tested on: KM12 colon
[18] = tested on: MOLT-4 leukemia
[19] = tested on: NCI-H226 lung
[20] = tested on: OVCAR-3 ovarian
[21] = tested on: BT-549 breast
[22] = tested on: HT29 colon
[23] = tested on: SK-MEL-28 melanoma
[24] = tested on: NCI/ADR-RES ovarian
[25] = tested on: UO-31 renal
[26] = tested on: MDA-MB-468 breast
[27] = tested on: U251 CNS
[28] = tested on: A498 renal
[29] = tested on: SF-295 CNS
[30] = tested on: MALME-3M melanoma
[31] = tested on: HL-60(TB) leukemia
[32] = tested on: MDA-MB-231 breast
[33] = tested on: LOX IMVI melanoma
[34] = tested on: UACC-257 melanoma
[35] = tested on: TK-10 renal
[36] = tested on: 786-0 renal
[37] = tested on: ACHN renal
[38] = tested on: SNB-19 CNS
[39] = tested on: HS 578T breast
[40] = tested on: SF-539 CNS
[41] = tested on: NCI-H522 lung
[42] = tested on: RXF 393 renal
[43] = tested on: EKVX NSCLC
[44] = tested on: IGROV1 ovarian
[45] = tested on: SK-MEL-2 melanoma
[46] = tested on: NCI-H460 lung
[47] = tested on: SW-620 colon
[48] = tested on: CAKI-1 renal
[49] = tested on: MCF7 breast
[50] = tested on: COLO 205 colon
[51] = tested on: SN12C renal
[52] = tested on: A549 NSCLC
[53] = tested on: OVCAR-8 ovarian
[54] = tested on: DU-145 prostate
[55] = tested on: MDA-MB-435
[56] = tested on: RPMI-8226 leukemia
[57] = tested on: SR leukemia
[58] = tested on: PC-3 prostate

Structure (SMILES): COc1ccc(C(=O)/C=C/c2cccc(Cl)c2Cl)cc1S(N)(=O)=O
- GI50 [1]: 3.94 µM
- TGI [1]: 16.4 µM
- GI50 [2]: 3.8 µM
- TGI [2]: 14.3 µM
- GI50 [3]: 5.74 µM
- TGI [3]: 33.3 µM
- GI50 [4]: 4.85 µM
- TGI [4]: 16.2 µM
- GI50 [5]: 1.29 µM
- TGI [5]: 2.94 µM
- GI50 [6]: 3.45 µM
- TGI [6]: 14.5 µM
- GI50 [7]: 2.67 µM
- TGI [7]: 24.1 µM
- GI50 [8]: 2.3 µM
- TGI [8]: 7.12 µM
- GI50 [9]: 12.4 µM
- TGI [9]: 23.8 µM
- GI50 [10]: 5.44 µM
- TGI [10]: 17.2 µM
- GI50 [11]: 1.91 µM
- TGI [11]: 5.78 µM
- GI50 [12]: 4.21 µM
- TGI [12]: 15.5 µM
- GI50 [13]: 9.19 µM
- TGI [13]: 19.4 µM
- GI50 [14]: 3.97 µM
- TGI [14]: 16.7 µM
- GI50 [15]: 9.52 µM
- TGI [15]: 21 µM
- GI50 [16]: 1.31 µM
- TGI [16]: 2.72 µM
- GI50 [17]: 1.99 µM
- TGI [17]: 4.8 µM
- GI50 [18]: 2.09 µM
- TGI [18]: 6 µM
- GI50 [19]: 2.3 µM
- TGI [19]: 7.5 µM
- GI50 [20]: 1.8 µM
- TGI [20]: 4.42 µM
- GI50 [21]: 4.73 µM
- TGI [21]: 17 µM
- GI50 [22]: 1.52 µM
- TGI [22]: 2.99 µM
- GI50 [23]: 11.1 µM
- TGI [23]: 22 µM
- GI50 [24]: 1.89 µM
- TGI [24]: 4.75 µM
- GI50 [25]: 1.48 µM
- TGI [25]: 3.51 µM
- GI50 [26]: 2.93 µM
- TGI [26]: 13.1 µM
- GI50 [27]: 1.31 µM
- TGI [27]: 2.48 µM
- GI50 [28]: 9.6 µM
- TGI [28]: 20 µM
- GI50 [29]: 3.89 µM
- TGI [29]: 14.7 µM
- GI50 [30]: 9.71 µM
- TGI [30]: 20.1 µM
- GI50 [31]: 7.84 µM
- TGI [31]: 34.2 µM
- GI50 [32]: 2.57 µM
- TGI [32]: 7.61 µM
- GI50 [33]: 1.38 µM
- TGI [33]: 2.54 µM
- GI50 [34]: 11.2 µM
- TGI [34]: 22.5 µM
- GI50 [35]: 5.18 µM
- TGI [35]: 16.9 µM
- GI50 [36]: 1.88 µM
- TGI [36]: 4.28 µM
- GI50 [37]: 1.77 µM
- TGI [37]: 3.9 µM
- GI50 [38]: 5.09 µM
- TGI [38]: 16.1 µM
- GI50 [39]: 8.64 µM
- TGI [39]: 32.1 µM
- GI50 [40]: 1.41 µM
- TGI [40]: 2.61 µM
- GI50 [41]: 3.01 µM
- TGI [41]: 12.6 µM
- GI50 [42]: 2.09 µM
- TGI [42]: 8.56 µM
- GI50 [43]: 10.3 µM
- TGI [43]: 20.9 µM
- GI50 [44]: 3.24 µM
- TGI [44]: 12.4 µM
- GI50 [45]: 11.3 µM
- TGI [45]: 22.3 µM
- GI50 [46]: 1.89 µM
- TGI [46]: 4.94 µM
- GI50 [47]: 1.58 µM
- TGI [47]: 3.3 µM
- GI50 [48]: 4.36 µM
- TGI [48]: 15 µM
- GI50 [49]: 3.17 µM
- TGI [49]: 13.7 µM
- GI50 [50]: 2.75 µM
- TGI [50]: 10.3 µM
- GI50 [51]: 1.82 µM
- TGI [51]: 3.91 µM
- GI50 [52]: 2.52 µM
- TGI [52]: 9.42 µM
- GI50 [53]: 2.37 µM
- TGI [53]: 8.78 µM
- GI50 [54]: 2.86 µM
- TGI [54]: 10.2 µM
- GI50 [55]: 9.65 µM
- TGI [55]: 20.7 µM
- GI50 [56]: 2.88 µM
- TGI [56]: 16.2 µM
- GI50 [57]: 1.54 µM
- TGI [57]: 5.36 µM
- GI50 [58]: 4.49 µM
- TGI [58]: 16.6 µM
